Experimental data reported in ChEMBL document CHEMBL1201862, “PubChem BioAssay data set” (2004).
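The compound was tested at five concentrations on cells cultured in 96-well plates, with a 48-hour exposure period. GI50 is the concentration that inhibits growth by half.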 Calls of active or inactive are those of the source. No stated cut-off is given here; in the data, active = GI50 up to about 1.1 µM and inactive = higher.

Legend:
Assay in all cases: NCI tumour cell line growth inhibition, 48 h
CAKI-1 = test system: CAKI-1
NCI-H460 = test system: NCI-H460
UACC-257 = test system: UACC-257
T47D = test system: T47D
NCI/ADR-RES = test system: NCI/ADR-RES
OVCAR-5 = test system: OVCAR-5
HL-60 = test system: HL-60
MCF7 = test system: MCF7
HOP-92 = test system: HOP-92
SK-OV-3 = test system: SK-OV-3
NCI-H226 = test system: NCI-H226
ACHN = test system: ACHN
MDA-MB-435 = test system: MDA-MB-435
SF-539 = test system: SF-539
UACC-62 = test system: UACC-62
RPMI-8226 = test system: RPMI-8226
NCI-H522 = test system: NCI-H522
SNB-19 = test system: SNB-19
SNB-75 = test system: SNB-75
SN12C = test system: SN12C

Structure (SMILES)	GI50 (CAKI-1)	GI50 (NCI-H460)	GI50 (UACC-257)	GI50 (T47D)	GI50 (NCI/ADR-RES)	GI50 (OVCAR-5)	GI50 (HL-60)	GI50 (MCF7)	GI50 (HOP-92)	GI50 (SK-OV-3)	GI50 (NCI-H226)	GI50 (ACHN)	GI50 (MDA-MB-435)	GI50 (SF-539)	GI50 (UACC-62)	GI50 (RPMI-8226)	GI50 (NCI-H522)	GI50 (SNB-19)	GI50 (SNB-75)	GI50 (SN12C)
CC(=O)c1ccc2c(c1)CC1(C2)Cc2cc3c(cc2C1)C(=O)CC3 (stereo not given)	2.03 µM (inactive)	0.453 µM (active)	11.4 µM (inactive)	3.33 µM (inactive)	1.57 µM (inactive)	6.75 µM (inactive)	0.76 µM (active)	0.429 µM (active)	4.21 µM (inactive)	0.723 µM (active)	0.31 µM (active)	3.07 µM (inactive)	0.242 µM (active)	0.733 µM (active)	3.29 µM (inactive)	0.345 µM (active)	1.93 µM (inactive)	1.67 µM (inactive)	32 µM (inactive)	4.25 µM (inactive)
CC(C)(C)OC(=O)NCC(=O)NC1CC=CCC1NC(=O)CNC(=O)OC(C)(C)C (stereo not given)	> 100 µM (inactive)	> 100 µM (inactive)	> 100 µM (inactive)	> 100 µM (inactive)	> 100 µM (inactive)	> 100 µM (inactive)	> 100 µM (inactive)	> 100 µM (inactive)	> 100 µM (inactive)	> 100 µM (inactive)	> 100 µM (inactive)	> 100 µM (inactive)	> 100 µM (inactive)	> 100 µM (inactive)	> 100 µM (inactive)	> 100 µM (inactive)	> 100 µM (inactive)	> 100 µM (inactive)	> 100 µM (inactive)	> 100 µM (inactive)
CN(C)CCCN1c2ccccc2Sc2cnccc21	63.1 µM (inactive)	32.1 µM (inactive)	19.7 µM (inactive)	> 100 µM (inactive)	> 100 µM (inactive)	> 100 µM (inactive)	74 µM (inactive)	61 µM (inactive)	61 µM (inactive)	> 100 µM (inactive)	83.2 µM (inactive)	52.8 µM (inactive)	69.7 µM (inactive)	54.6 µM (inactive)	38.5 µM (inactive)	79.1 µM (inactive)	65 µM (inactive)	> 100 µM (inactive)	> 100 µM (inactive)	74.1 µM (inactive)
N#CC(NC12CC3CC(CC(C3)C1)C2)c1ccc2c(c1)OCO2 (stereo not given)	> 100 µM (inactive)	> 100 µM (inactive)	> 100 µM (inactive)	> 100 µM (inactive)	> 100 µM (inactive)	> 100 µM (inactive)	> 100 µM (inactive)	> 100 µM (inactive)	89.1 µM (inactive)	> 100 µM (inactive)	> 100 µM (inactive)	> 100 µM (inactive)	> 100 µM (inactive)	> 100 µM (inactive)	> 100 µM (inactive)	> 100 µM (inactive)	> 100 µM (inactive)	> 100 µM (inactive)	> 100 µM (inactive)	> 100 µM (inactive)
Nc1nc2c(ncn2Cc2ccccc2CO)c(=O)[nH]1	> 100 µM (inactive)	> 100 µM (inactive)	> 100 µM (inactive)	> 100 µM (inactive)	> 100 µM (inactive)	> 100 µM (inactive)	> 100 µM (inactive)	> 100 µM (inactive)	> 100 µM (inactive)	> 100 µM (inactive)	> 100 µM (inactive)	> 100 µM (inactive)	> 100 µM (inactive)	> 100 µM (inactive)	> 100 µM (inactive)	> 100 µM (inactive)	> 100 µM (inactive)	> 100 µM (inactive)	> 100 µM (inactive)	> 100 µM (inactive)
O=C(NNS(=O)(=O)c1ccc(Br)cc1)c1ccc(Cl)cc1NC(=O)C12CC3CC(CC(C3)C1)C2	17 µM (inactive)	8.34 µM (inactive)	13.5 µM (inactive)	15.2 µM (inactive)	14.3 µM (inactive)	18.2 µM (inactive)	18.9 µM (inactive)	11.7 µM (inactive)	12.2 µM (inactive)	16.4 µM (inactive)	16.1 µM (inactive)	16 µM (inactive)	12.4 µM (inactive)	17.3 µM (inactive)	12.4 µM (inactive)	4.49 µM (inactive)	12.4 µM (inactive)	15.4 µM (inactive)	14.2 µM (inactive)	18.9 µM (inactive)
C=C1CC(Cn2cc(C)c(=O)[nH]c2=O)(c2ccc(Cl)cc2)OC1=O (stereo not given)	1.83 µM (inactive)	15.8 µM (inactive)	1.4 µM (inactive)	2.08 µM (inactive)	3.98 µM (inactive)	14.9 µM (inactive)	0.863 µM (active)	0.933 µM (active)	0.438 µM (active)	14.9 µM (inactive)	13.4 µM (inactive)	3.83 µM (inactive)	3.85 µM (inactive)	10.9 µM (inactive)	2.44 µM (inactive)	0.414 µM (active)	0.594 µM (active)	23.1 µM (inactive)	10.7 µM (inactive)	7.05 µM (inactive)
COc1cc2oc3cc(=O)cc4oc(-c5ccccc5)cc(c2c2c1CCC(c1ccccc1)O2)c43 (stereo not given)	15.7 µM (inactive)	27.5 µM (inactive)	26.7 µM (inactive)	17.7 µM (inactive)	> 100 µM (inactive)	56 µM (inactive)	25 µM (inactive)	7.66 µM (inactive)	> 100 µM (inactive)	35 µM (inactive)	> 100 µM (inactive)	19.3 µM (inactive)	22.7 µM (inactive)	24.5 µM (inactive)	35.1 µM (inactive)	3.34 µM (inactive)	34.8 µM (inactive)	63 µM (inactive)	79.1 µM (inactive)	25.2 µM (inactive)
CC(C)(C)c1cc(C(C)(C)C)c(P=C(Cl)Cl)c(C(C)(C)C)c1 (stereo not given)	> 100 µM (inactive)	> 100 µM (inactive)	> 100 µM (inactive)	> 100 µM (inactive)	> 100 µM (inactive)	> 100 µM (inactive)	> 100 µM (inactive)	> 100 µM (inactive)	> 100 µM (inactive)	> 100 µM (inactive)	> 100 µM (inactive)	> 100 µM (inactive)	> 100 µM (inactive)	> 100 µM (inactive)	> 100 µM (inactive)	> 100 µM (inactive)	> 100 µM (inactive)	> 100 µM (inactive)	> 100 µM (inactive)	> 100 µM (inactive)
C=C1C(=O)O[C@@H]2CC(CO)=C([C@@H](C)CCCO)[C@@H](OC(=O)/C(C)=C\C)[C@H]12	22.1 µM (inactive)	9.98 µM (inactive)	15.6 µM (inactive)	10.4 µM (inactive)	20.2 µM (inactive)	28.5 µM (inactive)	1.83 µM (inactive)	10.2 µM (inactive)	19.6 µM (inactive)	25.9 µM (inactive)	28.4 µM (inactive)	15.1 µM (inactive)	15.8 µM (inactive)	22.2 µM (inactive)	16 µM (inactive)	5.05 µM (inactive)	2.62 µM (inactive)	20.1 µM (inactive)	27.2 µM (inactive)	16.2 µM (inactive)
CCN(CC)C(=S)SC(=S)N(CC)CC	36.1 µM (inactive)	2.3 µM (inactive)	41.6 µM (inactive)	32.4 µM (inactive)	42.5 µM (inactive)	> 100 µM (inactive)	29.5 µM (inactive)	34.8 µM (inactive)	39.4 µM (inactive)	> 100 µM (inactive)	33.7 µM (inactive)	35.4 µM (inactive)	34.1 µM (inactive)	> 62.8 µM (inactive)	20.8 µM (inactive)	15.6 µM (inactive)	0.0951 µM (active)	49.8 µM (inactive)	31.3 µM (inactive)	> 54.3 µM (inactive)
Cc1cc(/N=C/c2ccc(C#N)cc2)n(-c2ccccc2)n1	> 100 µM (inactive)	> 100 µM (inactive)	> 100 µM (inactive)	48.9 µM (inactive)	65.8 µM (inactive)	> 100 µM (inactive)	20.1 µM (inactive)	41.1 µM (inactive)	> 100 µM (inactive)	51.3 µM (inactive)	> 100 µM (inactive)	> 100 µM (inactive)	37 µM (inactive)	99.3 µM (inactive)	80.4 µM (inactive)	26.2 µM (inactive)	72.4 µM (inactive)	65.8 µM (inactive)	57 µM (inactive)	82.2 µM (inactive)
C=C1C(=O)O[C@H]2C3C(=C(C)CC[C@@H]12)C(=O)[C@@H]1OC31C (stereo not given in full)	2.67 µM (inactive)	10.1 µM (inactive)	2.24 µM (inactive)	1.81 µM (inactive)	3.13 µM (inactive)	10.4 µM (inactive)	0.23 µM (active)	1.8 µM (inactive)	2.93 µM (inactive)	15.4 µM (inactive)	7.48 µM (inactive)	2.6 µM (inactive)	2.72 µM (inactive)	2.43 µM (inactive)	2.04 µM (inactive)	0.746 µM (active)	1.53 µM (inactive)	15.8 µM (inactive)	2.38 µM (inactive)	1.63 µM (inactive)
Nc1[nH]c(Nc2ccc(Cl)c(Cl)c2)nc2ncnc1-2	10.8 µM (inactive)	15.5 µM (inactive)	17.5 µM (inactive)	8.55 µM (inactive)	15.9 µM (inactive)	25.5 µM (inactive)	6.67 µM (inactive)	14.6 µM (inactive)	16.6 µM (inactive)	15.3 µM (inactive)	20.6 µM (inactive)	9.89 µM (inactive)	16.6 µM (inactive)	12.4 µM (inactive)	11.9 µM (inactive)	14.5 µM (inactive)	15.3 µM (inactive)	14.1 µM (inactive)	8.36 µM (inactive)	23.6 µM (inactive)
